Results reported in patent publication US11931374B2, “Adenosine receptor modulators for the treatment of circadian rhythm disorders” (OXFORD UNIVERSITY INNOVATION LIMITED, priority 2016, dated 2024).

Assays:
C57Bl/6 mice [1] = experiment: Phase shifting of circadian activity by drug (running wheel); assay type: in vivo; settings: administered at CT22, absence of a light pulse
Experimental: Animals were housed under a reversed 12:12 LD cycle (400 lux from white LED lamps) with food and water ad libitum. For phase-shifting studies, C57Bl/6 mice were maintained on running wheels in light tight chambers on a 12:12 LD cycle (400 lux from white LED lamps) and injected with drug at the indicated time points. The drugs were formulated in a vehicle consisting of 5% Koliphor-HS15 (Sigma-Aldrich, UK) 5% Cyclodextran (Sigma-Aldrich, UK) in 0.9% saline. This vehicle was warmed to 37° C. and the indicated drugs kept at a 100× stock in DMSO and mixed at the appropriate concentration to be administered at approximately 300 ul intraperitoneal injection (n=6 to 10). Where the time point of injection was in the dark, the procedure was conducted under dim red light. Where measuring phase-shifting, the mice were then placed in DD and allowed to free run for 14 days in DD, running wheel activity data was collected and analysed on Clocklab (Actimetrics, Wilmette, IL). For jet-lag studies, mice were maintained on running wheels in light tight chambers on a 12:12 LD cycle (400 lux from white LED lamps) and injected with drugs as above at ZT6 and the LD cycle was shifted 6 hours in advance. The onset of activity on each day was used to measure phase relative to the LD cycle.
Phase Shifting: C57Bl/6 male mice (80 days or older) were maintained on running wheels in light tight chambers on a 12:12 LD cycle (100 lux from white LED lamps) on stable entrainment, were released in complete darkness. At set times as indicated in the experiments, the animals received an intraperitoneal injection (300 ul) of drug constituted in sterile saline with 5% Cyclodextrin (Sigma-Aldrich) and 5% Koliphor (Sigma-Aldrich) and then allowed to free run in DD, running wheel activity data were collected and analysed on Clocklab (Actimetrics, Wilmette, IL).

CRE::Luc reporter = experiment: CRE-Luc luciferase assay in U2OS cells; assay type: cell-based
Experimental: At 60-80% confluence and >90% viability, the U2OS cells in the T-75 flask were washed twice with 6 ml phosphate-buffered saline (PBS) and subsequently treated with 4 ml of TrypLE™ Express trypsin replacement solution for 10 minutes. A Greiner Bio-One 96 Well Plate (white, TC treated), was then seeded at 8000 cells per well. Following 24 hours, the cells were transfected at 50-70% confluency with CRE-luc Vector generated in-house with Viafect transfection reagent at 1:4 ratio (100 ng DNA/well) following manufacturers recommendations.
24 hours after transfection, the medium in the 96 well plate was changed to a serum-free medium with 1 mM luciferin. The cells were then incubated in serum starvation conditions for 6-8 hours, this was optimised to yield the greatest signal strength and lowest noise when assayed with forskolin control. Following the incubation period, the CRE-Luc U2OS cells were treated with the appropriate drug and their luminescence values were measured after 6 hours in the BMG FLUOstar OPTIMA Microplate Reader. […] Unless stated otherwise, forskolin was used as a positive control, and 1% DMSO was used as a negative control.

C57Bl/6 mice [2] = experiment: Phase shifting of circadian activity in response to a light pulse with drug; assay type: in vivo; settings: 1 mg/kg intraperitoneal before 30 min 400 lux light pulse at CT22
Experimental: Animals were maintained in a 12 h light (white) 12 h dark (grey) cycle and vehicle was administered just before a 30 min 400 lux light pulse (white bar) at time CT 22 (or 10 hours after lights off). All light cues were then removed to allow the animals free running clock to express. A gap in the lines on the day after the light pulse was administered indicates a phase shift.
Animals were maintained in a 12 h light (white) 12 h dark (grey) cycle and IB-MECA (1 mg/kg) was administered just before a 30 min 400 lux light pulse (white bar) at time CT 22 (or 10 hours after lights off).
Animals were housed under a reversed 12:12 LD cycle (400 lux from white LED lamps) with food and water ad libitum. For phase-shifting studies, C57Bl/6 mice were maintained on running wheels in light tight chambers on a 12:12 LD cycle (400 lux from white LED lamps) and injected with drug at the indicated time points. The drugs were formulated in a vehicle consisting of 5% Koliphor-HS15 (Sigma-Aldrich, UK) 5% Cyclodextran (Sigma-Aldrich, UK) in 0.9% saline. […] Where measuring phase-shifting, the mice were then placed in DD and allowed to free run for 14 days in DD, running wheel activity data was collected and analysed on Clocklab (Actimetrics, Wilmette, IL). […]

Per1 = Per1 mRNA levels in U2OS cells by qPCR; assay type: cell-based; settings: U2OS cells, qPCR, concentration not given
Experimental: (§1) Total RNA was extracted using the microRNeasy column method (Qiagen, Hilden, Germany). Quality and quantity of RNA were measured using an Agilent Bioanalyzer and a Nanodrop1000 (Thermo Fisher Scientific, Waltham, MA USA), respectively.
(§2) RNA samples were prepared as described for microarray hybridisation. cDNA was synthesized with a qScript cDNA synthesis kit (Quanta Biosciences, Gaithersburg, MD), and quantitative PCR (qPCR) was conducted with Sybr green I and an SDS7700 thermal cycler (Applied Biosystems, Foster City, CA). Relative quantification of transcript levels was done as described previously (Peirson et al., Nucleic Acids Res. 2003 Jul. 15; 31(14):e73.). The geometric mean of a minimum of three housekeeping genes was used for normalization (Gapdh, ActB, GusB and Rps9 for example).
(§3) Cells from the U2OS (HTB-96) line were obtained, tested and identified. The cells were cultured in T-75 flasks, in Dulbecco's modified Eagle medium (DMEM) supplemented with 10% foetal bovine serum (FBS) and 1% penicillin-streptomycin (P/S) at 37° C. in a humidified atmosphere at 5% CO2. The cells were subcultured every 2 to 4 days in a 1:2 to 1:6 ratio, in accordance with the ATCC recommendations. The cells were counted using a haemocytometer, and their viability in a culture was maintained at above 95%, measured with a Presto Blue exclusion assay according to the manufacturer's specifications. Cells were transfected with siRNAs (typically at 50 nM concentrations, sequences as previously listed), the CRE::Luc (pGL4.29[luc2P/CRE/Hygro] Vector, encoding Luc2P […] under the control of a strong cAMP response element (CRE) promoter containing 3 CRE elements within its sequence; Promega) reporter vector or cAMP-GLOSensor plasmid (Promega) as per manufacturer's instructions using either Lipofectamine RNAimax (Invitrogen) or Lipofectamine3000 (Invitrogen).

[3] = test system: intracellular levels of cAMP; experiment: cAMP GloSensor assay in U2OS cells; assay type: cell-based
Experimental: The GloSensor™ cAMP Assay (Promega) was used for detecting changes in the intracellular levels of cAMP. Initially, a Greiner Bio-One 96 Well Plate (white, TC treated) was seeded at 8000 cells per 100 μl well, as described above. After 24 hours, the cells were transfected with the pGloSensor™ cAMP Plasmid using the Viafect transfection reagent as above. Between 24 and 48 hours later, allowing for the accumulation of the biosensor, the medium in the 96 well plate was changed to C02-Independent Medium supplemented with GlutaMAX™ (Life Technologies), 10% fetal bovine serum and 2% GloSensor™ cAMP Reagent. The plate was then stood for 2 hours at room temperature to equilibrate. Following the incubation period, the cells were treated with relevant drugs and their luminescence values were measured after 20 minutes in the BMG FLUOstar OPTIMA Microplate Reader, with forskolin as a positive control, and DMSO as a negative control.

Per2 = Per2 mRNA levels in U2OS cells by qPCR; assay type: cell-based; settings: U2OS cells, qPCR, concentration not given
Experimental: as §1, §2, §3

Per2::Luc U2OS cells = experiment: Per2::Luc cell based circadian assay; settings: for circadian period length: Per2::Luc U2OS cells, dose response
Experimental: U2OS cells stably transfected with a Per2::Luc reporter were cultured in DMEM supplemented with 10% FBS. For siRNA- and drug-based experiments, cells were seeded at 5,000 per well into white 384 well plates and transfected with 20 nM siRNA the next day. 2 days later, the cells were synchronized with 100 nM dexamethasone and the medium was replaced with phenol-red free DMEM supplemented with B-27 and 100 µM luciferin potassium salt, requisite drugs formulated in DMSO as a 1000× stock was added, and then sealed. Per2::Luc rhythms were recorded from a BMG Labtech Fluostar Omega plate reader maintained at 36° C. and readings taken from each well every hour. Data were then analysed using either Multicycle or Brass rhythm analysis software.
Period2::Luciferase (Per2::Luc) stable U2OS transfects were cultured, as described above. A Greiner Bio-One 384 Well Plate (Polystyrene, F-bottom), was then seeded at 6000 cells per 50 μl well. Following a 24 hour period, the cells were treated with 0.1% dexamethasone, a glucocorticoid hormone analogue known to reset intracellular circadian rhythms, for 1 hour. Subsequently, the dexamethasone-containing medium was removed, the cells were washed with PBS and luciferin and test drug containing medium was added. The cells were then assayed for luminescence over a period of 96 hours in the BMG FLUOstar OPTIMA Microplate Reader to observe the periodicity and amplitude of the luminescence values.

Per1/2 [4] = experiment: Sleep deprivation, Per1/2 within the cortex; assay type: in vivo; settings: data not shown
Per1/2 [5] = experiment: Sleep deprivation, Per1/2 expression within the SCN; assay type: in vivo; settings: sleep deprivation decreases Per1/2 expression
[6] = test system: STAR-PROM plasmid library; experiment: STAR-PROM transcription factor screening in U2OS cells; assay type: cell-based; settings: siFos
Experimental: This was conducted as previously reported in Gerber et al., Cell. […] Briefly, U2OS cells were cultured in 6-well plates and transfected with 1 ug of the STAR-PROM plasmid library (library structure as in above reference). RNA was extracted at set time points and sequenced for the barcoded luciferase constructs and analysed with Galaxy (https://use.galaxy.org).

## CNC(=O)[C@H]1O[C@@H](n2cnc3c(NCc4cccc(I)c4)ncnc32)[C@H](O)[C@@H]1O [IB-MECA, 1-Deoxy-1-[6-[((3-Iodophenyl)methyl)amino]-9H-purin-9-yl]-N-methyl-β-D-ribofuranuronamide]
C57Bl/6 mice [1]
  phase shift of circadian activity: elicited a phase delay
CRE::Luc reporter
  CREB-driven transcription (CRE::Luc reporter): activation
C57Bl/6 mice [2]
  phase advance induced by light pulse: phase advance was lost
Per1
  Per1 mRNA levels / expression: elevated
[3]
  cAMP levels: concurrent increase
Per2
  Per2 mRNA levels / expression: elevated
Per2::Luc U2OS cells
  circadian period length: dose-dependent period length increases
Per2::Luc U2OS cells; Per2::Luciferase construct, U2OS cells
  amplitude of the cellular clock: increases in period and amplitude

## CCn1c(=O)c2c(nc(/C=C/c3ccc(OC)c(OC)c3)n2C)n(CC)c1=O [Istradefylline, 8-[(E)-2-(3,4-dimethoxyphenyl)vinyl]-1,3-diethyl-7-methyl-3,7-dihydro-1H-purine-2,6-dione]
Per2::Luc U2OS cells
  circadian period length: increased circadian period length in a dose dependent manner

## CC#C[C@]1(O)CC[C@H]2[C@@H]3CCC4=CC(=O)CCC4=C3[C@@H](c3ccc(N(C)C)cc3)C[C@@]21C [mifepristone]
Per1/2 [4]
  sleep deprivation-induced increase of Per1/2 within the cortex: blunted this response

## O=C(Cc1ccccc1)Nc1nc2ccc(Cl)cc2c2nc(-c3ccco3)nn12 [MRS1220, 9-Chloro-2-(2-furanyl)-5-((phenylacetyl)amino)-[1,2,4]triazolo[1,5-c]quinazoline]
Per2::Luc U2OS cells
  circadian period length: increased circadian period length in a dose dependent manner

## CCNC(=O)[C@H]1O[C@@H](n2cnc3c(N)nc(NCCc4ccc(CCC(=O)O)cc4)nc32)[C@H](O)[C@@H]1O.Cl [CGS21680, 3-[4-[2-[[6-amino-9-[(2R,3R,4S,5S)-5-(ethylcarbamoyl)-3,4-dihydroxy-oxolan-2-yl]purin-2-yl]amino]ethyl]phenyl]propanoic acid]
Per1/2 [5]
  Per1/2 expression within the SCN: increased Per1/2 expression

## Nc1nc2ccc(Cl)cc2c2nc(-c3ccco3)nn12 [CGS15943, 9-chloro-2-(furan-2-yl)-[1,2,4]triazolo[1,5-c]quinazolin-5-amine]
[6]
  response of clone3 after siRNA-mediated silencing of Fos: significantly reduced
Per2::Luc U2OS cells; A1, A2A, A2B adenosine receptors in U2OS cells knocked down using siRNA
  period lengthening effect after knockdown of adenosine receptors: lost

## Nc1nc(NCCc2ccc(O)cc2)nc2nc(-c3ccco3)nn12 [ZM241385, 4-(2-(7-amino-2-(furan-2-yl)-[1,2,4]triazolo[1,5-a][1,3,5]triazin-5-ylamino)ethyl)phenol]
Per2::Luc U2OS cells
  circadian period length: increased circadian period length in a dose dependent manner
